Test: Human HepG2 cell viability assay in 384 well format
Format: toxicity, cell-based
Set-up: dose 125 nL, time 70.5 hour; concentration not given beside the values
Settings: HepG2 cells, read-out: Inhibition

SMILES | cytotoxicity at 70.5 h
Cc1nc(C)n(CC2CCCN2Cc2cn(-c3ccccc3)nn2)n1 (stereo unspecified) | 2.44%
O=C(c1cnco1)N1CCC(Cc2cccc3ncccc23)CC1 | 20.4%
Cc1nc(C)c(CC(=O)N2CCC(Oc3ccccc3)CC2)c(=O)[nH]1 | -7.9%
CCSc1cc(C(=O)NC(C)c2cccc(N3CCOC3=O)c2)ccn1 (stereo unspecified) | 16.4%
CCc1cnc(C)nc1NC(C)C(=O)Nc1cc(F)ccc1C (stereo unspecified) | 22.4%
COCC1CN(C(=O)c2ccccn2)Cc2nccn2C1 (stereo unspecified) | -11.1%
Cn1ccc(NC(=O)NC2CCCN(c3ccccc3Cl)C2=O)n1 (stereo unspecified) | -0.238%
Cc1cccc2c1cnn2CCC(=O)NCc1csc(C2CC2)n1 | -8.07%
O=C([C@@H]1COC[C@H]2CN(C3CCCC3)C[C@H]21)N1CCCCO1 | 11.7%
CN(C)C(=O)c1cccc(CNc2ccc(C#N)cn2)c1 | 5.12%
Cc1ccc(N2CCO[C@H]3CN(Cc4cccnc4)C[C@H]32)nn1 | 12.6%
Cc1cc(C2CCCN(S(=O)(=O)N(C)C)C2)ccn1 (stereo unspecified) | 23.8%
COCCn1ccc2c(C(=O)NC3CN4CCC3CC4)cccc21 (stereo unspecified) | -20.8%
Cc1cccc(C(C)(C)CNC(=O)CN(C)S(=O)(=O)c2cccnc2)c1 | -15.3%
CC1=C(CCN2CCCC(O)C2)C(C)(C)CCC1 (stereo unspecified) | 18.9%
O=C(O)c1cnc(-c2cccc3c2CCNC3)c(Cl)c1 | -11.1%
CNc1ncc(CN(C)c2nccc(CCC(F)(F)F)n2)cn1 | -2.35%
N#Cc1c(F)cccc1N1CCN(C(=O)Nc2nncs2)CC1 | 11.5%
CC(C)(N)c1cn(C2CCN(C3CCSCC3)CC2)nn1 | -6.81%
Clc1ccc(-n2cc(CNC3CCc4ncnn4C3)cn2)cc1 (stereo unspecified) | -12.4%
CCN1CC2(CCC1=O)CCN(CCOc1ccc(F)cc1)CC2 | -13%
Cc1ncnc(NCC(C)N(C)c2ccccc2)c1C (stereo unspecified) | 29.1%
COCCc1noc(CN(C)c2cc(C)ncn2)n1 | 17.1%

SMILES | cytotoxicity at 70.5 h
Cn1nccc1C(=O)N1Cc2ccccc2OC2(CCOCC2)C1 | 1.33%
CS(=O)(=O)NC(=O)c1cnc2c(cnn2C2CCCC2)c1 | -4.29%
CC(C)NC(=O)CCNC(=O)CCc1cc(Br)cs1 | -6.47%
COCCOCCSc1nnc(Cc2ccccc2F)o1 | -4.09%
CN(Cc1ccco1)Cc1cncc2c1CCN(Cc1ccoc1)C2 | -8.02%
O=C(Nc1cccnc1-n1cc(Cl)cn1)C1CCCC1 | -29.5%
c1cncc(OCc2noc3c2CN(Cc2ccco2)CC3)c1 | -17.4%
CCn1ccc(C(=O)N2CCCC2(C)c2nc(C)cc(N(C)C)n2)n1 (stereo unspecified) | -7.92%
Cc1noc(C)c1CC(=O)NCc1ccnc(OCC(F)(F)F)c1 | -7.45%
CN(C)c1cc(CNC(=O)Nc2nnc(C3CC3)s2)ccn1 | 1.07%
N#Cc1cc(NC(=O)c2cscn2)ccc1N1CCC(O)CC1 | -4.48%
CS(=O)(=O)c1cccc(OCC(=O)N2CCCC2c2ccccc2Cl)c1 (stereo unspecified) | -2.69%
CC(C)c1nc(C2CCCN2Cc2ccccc2C#N)no1 (stereo unspecified) | 5.38%
Cc1nc(CN2CCCC(Cn3cncn3)C2)nc2ccccc12 (stereo unspecified) | 19%
COc1ccc(CN2CCN(c3nccnc3OC)CC2=O)cc1 | -4.78%
CCN(CC)C(=O)c1cc(C2CCCN2C)ccn1 (stereo unspecified) | 4.19%
Cc1ccc(F)c2c1N(C(=O)Cc1c(C)nn(C)c1C)CCC2 | -8.9%
COCc1ncc(-c2nccn2CCS(C)(=O)=O)cn1 | 27.5%
O=C(CCN1CCCN(c2nccs2)CC1)NCC1CCCCC1 | -8.1%
CO[C@H]1CN(Cc2cccc(C#N)c2)[C@@H]2COC[C@H]12 | -0.497%
Cc1ccc(C(=O)N2C[C@H]3CCC[C@@]3(COCc3cccnc3)C2)s1 | -12%
CSCc1cc(F)ccc1CNCc1ncc[nH]1 | -8.53%
CN(C)C(=O)CNC(=O)c1ccc2ccc(N(C)CC3CC3)n2c1 | -12.4%
